One block for each molecule: values may come before it.
Test system: 755483-174-R-J1-PDC complex spheroid growth, percent test/control
Assay: Anticancer human tumor 755483-174-R-J1-PDC patient-derived rhabdomyosarcoma cell line growth inhibition [Asc]
Conditions: for IC50: curve of first compound; for viability, T/C: stronger effect = lower value
In short: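 Complex spheroids combining tumor cells with HUVEC endothelial cells and human MSCs, at 37 degrees C, 5% CO2; agents tested alone or combined, half-log dilutions from at or near clinical Cmax, or 10 microM if Cmax unknown.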

[1] = second compound 0.03 µM, first compound 0.0316 µM
[2] = second compound 0.03 µM, first compound 0.1 µM
[3] = second compound 0.03 µM, first compound 0.316 µM
[4] = second compound 0.03 µM, first compound 1 µM
[5] = second compound 0.0949 µM, first compound 0.0316 µM
[6] = second compound 0.0949 µM, first compound 0.1 µM
[7] = second compound 0.0949 µM, first compound 0.316 µM
[8] = second compound 0.0949 µM, first compound 1 µM
[9] = second compound 0.3 µM, first compound 0.0316 µM
[10] = second compound 0.3 µM, first compound 0.1 µM
[11] = second compound 0.3 µM, first compound 0.316 µM
[12] = second compound 0.3 µM, first compound 1 µM
[13] = second compound 0.949 µM, first compound 0.0316 µM
[14] = second compound 0.949 µM, first compound 0.1 µM
[15] = second compound 0.949 µM, first compound 0.316 µM
[16] = second compound 0.949 µM, first compound 1 µM
[17] = second compound 3 µM, first compound 0.0316 µM
[18] = second compound 3 µM, first compound 0.1 µM
[19] = second compound 3 µM, first compound 0.316 µM
[20] = second compound 3 µM, first compound 1 µM
[21] = second compound 0.01 µM, first compound 0.0316 µM
[22] = second compound 0.01 µM, first compound 0.1 µM
[23] = second compound 0.0316 µM, first compound 0.0316 µM
[24] = second compound 0.0316 µM, first compound 0.1 µM
[25] = second compound 0.1 µM, first compound 0.0316 µM
[26] = second compound 0.1 µM, first compound 0.1 µM
[27] = second compound 0.316 µM, first compound 0.0316 µM
[28] = second compound 0.316 µM, first compound 0.1 µM
[29] = second compound 1 µM, first compound 0.0316 µM
[30] = second compound 1 µM, first compound 0.1 µM
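Note: spheroids exposed to compounds for seven days before readout.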

- IC50 (second compound 0.03 µM): 534 nM
- IC50 (second compound 0.0949 µM): 338 nM
- IC50 (second compound 0.3 µM): 426 nM
- IC50 (second compound 0.949 µM): 273 nM
- IC50 (second compound 3 µM): 329 nM
SMILES: O=C(c1ccc(F)c(F)c1Nc1ccc(I)cc1F)N1CC(O)([C@@H]2CCCCN2)C1 + CCN1C(C(=O)NC23CCC(C(=O)O)(CC2)CC3)C(c2cccc(Cl)c2F)C2(C(=O)Nc3cc(Cl)ccc32)C12CCCCC2
- viability, T/C (second compound 0.03 µM, first compound 0.00316 µM): 85.3%
- viability, T/C (second compound 0.03 µM, first compound 0.01 µM): 108%
- viability, T/C [1]: 95.4%
- viability, T/C [2]: 99.2%
- viability, T/C [3]: 78.3%
- viability, T/C [4]: 16%
- viability, T/C (second compound 0.0949 µM, first compound 0.00316 µM): 113%
- viability, T/C (second compound 0.0949 µM, first compound 0.01 µM): 124%
- viability, T/C [5]: 117%
- viability, T/C [6]: 93.5%
- viability, T/C [7]: 53%
- viability, T/C [8]: 18.6%
- viability, T/C (second compound 0.3 µM, first compound 0.00316 µM): 109%
- viability, T/C (second compound 0.3 µM, first compound 0.01 µM): 109%
- viability, T/C [9]: 102%
- viability, T/C [10]: 118%
- viability, T/C [11]: 61%
- viability, T/C [12]: 18.2%
- viability, T/C (second compound 0.949 µM, first compound 0.00316 µM): 126%
- viability, T/C (second compound 0.949 µM, first compound 0.01 µM): 127%
- viability, T/C [13]: 134%
- viability, T/C [14]: 121%
- viability, T/C [15]: 39.8%
- viability, T/C [16]: 18.3%
- viability, T/C (second compound 3 µM, first compound 0.00316 µM): 104%
- viability, T/C (second compound 3 µM, first compound 0.01 µM): 120%
- viability, T/C [17]: 90%
- viability, T/C [18]: 97.5%
- viability, T/C [19]: 50.3%
- viability, T/C [20]: 16.4%

- IC50 (second compound 0.01 µM): < 0.316 nM
- IC50 (second compound 0.0316 µM): < 0.316 nM
- IC50 (second compound 0.1 µM): < 0.316 nM
- IC50 (second compound 0.316 µM): < 0.316 nM
- IC50 (second compound 1 µM): < 0.316 nM
SMILES: Cn1ncnc1[C@H]1c2n[nH]c(=O)c3cc(F)cc(c23)N[C@@H]1c1ccc(F)cc1 + CNC(C)C(=O)NC1CN(S(=O)(=O)c2cccc(S(=O)(=O)N3CCC4CCC(C(=O)NC(c5ccccc5)c5ccccc5)N4C(=O)C(NC(=O)C(C)NC)C3)c2)CCC2CCC(C(=O)NC(c3ccccc3)c3ccccc3)N2C1=O
- viability, T/C (second compound 0.01 µM, first compound 0.000316 µM): 39.3%
- viability, T/C (second compound 0.01 µM, first compound 0.001 µM): 45.2%
- viability, T/C (second compound 0.01 µM, first compound 0.00316 µM): 45.5%
- viability, T/C (second compound 0.01 µM, first compound 0.01 µM): 30.9%
- viability, T/C [21]: 26.4%
- viability, T/C [22]: 18.1%
- viability, T/C (second compound 0.0316 µM, first compound 0.000316 µM): 36.2%
- viability, T/C (second compound 0.0316 µM, first compound 0.001 µM): 42.9%
- viability, T/C (second compound 0.0316 µM, first compound 0.00316 µM): 33.4%
- viability, T/C (second compound 0.0316 µM, first compound 0.01 µM): 16.2%
- viability, T/C [23]: 18.1%
- viability, T/C [24]: 12.7%
- viability, T/C (second compound 0.1 µM, first compound 0.000316 µM): 26.2%
- viability, T/C (second compound 0.1 µM, first compound 0.001 µM): 33.2%
- viability, T/C (second compound 0.1 µM, first compound 0.00316 µM): 25.4%
- viability, T/C (second compound 0.1 µM, first compound 0.01 µM): 14.4%
- viability, T/C [25]: 13.7%
- viability, T/C [26]: 9.96%
- viability, T/C (second compound 0.316 µM, first compound 0.000316 µM): 31.5%
- viability, T/C (second compound 0.316 µM, first compound 0.001 µM): 23.6%
- viability, T/C (second compound 0.316 µM, first compound 0.00316 µM): 17.2%
- viability, T/C (second compound 0.316 µM, first compound 0.01 µM): 14.7%
- viability, T/C [27]: 6.84%
- viability, T/C [28]: 9.04%
- viability, T/C (second compound 1 µM, first compound 0.000316 µM): 13.7%
- viability, T/C (second compound 1 µM, first compound 0.001 µM): 19.7%
- viability, T/C (second compound 1 µM, first compound 0.00316 µM): 9.69%
- viability, T/C (second compound 1 µM, first compound 0.01 µM): 9.82%
- viability, T/C [29]: 9.01%
- viability, T/C [30]: 7.46%

- IC50 (second compound 0.03 µM): 2170 nM
- IC50 (second compound 0.0949 µM): 1660 nM
- IC50 (second compound 0.3 µM): 1430 nM
- IC50 (second compound 0.949 µM): 1890 nM
- IC50 (second compound 3 µM): 1600 nM
SMILES: C=C(F)C(=O)N1CCN(c2nc(OCC3CCCN3C)nc3c2CCN(c2cccc4cccc(Cl)c24)C3)CC1CC#N (stereo not given) + CCN1C(C(=O)NC23CCC(C(=O)O)(CC2)CC3)C(c2cccc(Cl)c2F)C2(C(=O)Nc3cc(Cl)ccc32)C12CCCCC2
- viability, T/C [1]: 81%
- viability, T/C [2]: 120%
- viability, T/C [3]: 91.5%
- viability, T/C [4]: 89.4%
- viability, T/C (second compound 0.03 µM, first compound 3.16 µM): 30.9%
- viability, T/C (second compound 0.03 µM, first compound 10 µM): 0.12%
- viability, T/C [5]: 91.9%
- viability, T/C [6]: 93.2%
- viability, T/C [7]: 83.1%
- viability, T/C [8]: 66.6%
- viability, T/C (second compound 0.0949 µM, first compound 3.16 µM): 29.6%
- viability, T/C (second compound 0.0949 µM, first compound 10 µM): 0.13%
- viability, T/C [9]: 82.9%
- viability, T/C [10]: 106%
- viability, T/C [11]: 87%
- viability, T/C [12]: 56.6%
- viability, T/C (second compound 0.3 µM, first compound 3.16 µM): 28.5%
- viability, T/C (second compound 0.3 µM, first compound 10 µM): 0.51%
- viability, T/C [13]: 88.4%
- viability, T/C [14]: 97.3%
- viability, T/C [15]: 89.2%
- viability, T/C [16]: 69.3%
- viability, T/C (second compound 0.949 µM, first compound 3.16 µM): 33.8%
- viability, T/C (second compound 0.949 µM, first compound 10 µM): 0.31%
- viability, T/C [17]: 79.5%
- viability, T/C [18]: 81.7%
- viability, T/C [19]: 86.4%
- viability, T/C [20]: 65.7%
- viability, T/C (second compound 3 µM, first compound 3.16 µM): 25.3%
- viability, T/C (second compound 3 µM, first compound 10 µM): 0.24%

- IC50 (second compound 0.01 µM): > 10000 nM
- IC50 (second compound 0.0316 µM): > 10000 nM
- IC50 (second compound 0.1 µM): 31.6 nM
- IC50 (second compound 0.316 µM): < 31.6 nM
- IC50 (second compound 1 µM): < 31.6 nM
SMILES: C=CC(=O)N1CCN(c2nc(=O)n(-c3c(C)ccnc3C(C)C)c3nc(-c4c(O)cccc4F)c(F)cc23)C(C)C1 (stereo not given) + CNC(C)C(=O)NC1CN(S(=O)(=O)c2cccc(S(=O)(=O)N3CCC4CCC(C(=O)NC(c5ccccc5)c5ccccc5)N4C(=O)C(NC(=O)C(C)NC)C3)c2)CCC2CCC(C(=O)NC(c3ccccc3)c3ccccc3)N2C1=O
- viability, T/C [21]: 80.2%
- viability, T/C [22]: 89.3%
- viability, T/C (second compound 0.01 µM, first compound 0.316 µM): 75.2%
- viability, T/C (second compound 0.01 µM, first compound 1 µM): 61.4%
- viability, T/C (second compound 0.01 µM, first compound 3.16 µM): 80.5%
- viability, T/C (second compound 0.01 µM, first compound 10 µM): 63%
- viability, T/C [23]: 51.8%
- viability, T/C [24]: 77.5%
- viability, T/C (second compound 0.0316 µM, first compound 0.316 µM): 61.4%
- viability, T/C (second compound 0.0316 µM, first compound 1 µM): 56.6%
- viability, T/C (second compound 0.0316 µM, first compound 3.16 µM): 75.1%
- viability, T/C (second compound 0.0316 µM, first compound 10 µM): 37.7%
- viability, T/C [25]: 53.4%
- viability, T/C [26]: 54.7%
- viability, T/C (second compound 0.1 µM, first compound 0.316 µM): 44.6%
- viability, T/C (second compound 0.1 µM, first compound 1 µM): 59.2%
- viability, T/C (second compound 0.1 µM, first compound 3.16 µM): 69.8%
- viability, T/C (second compound 0.1 µM, first compound 10 µM): 51.1%
- viability, T/C [27]: 38.4%
- viability, T/C [28]: 36.2%
- viability, T/C (second compound 0.316 µM, first compound 0.316 µM): 44.4%
- viability, T/C (second compound 0.316 µM, first compound 1 µM): 61.1%
- viability, T/C (second compound 0.316 µM, first compound 3.16 µM): 46.2%
- viability, T/C (second compound 0.316 µM, first compound 10 µM): 43.9%
- viability, T/C [29]: 32.4%
- viability, T/C [30]: 28.9%
- viability, T/C (second compound 1 µM, first compound 0.316 µM): 33.6%
- viability, T/C (second compound 1 µM, first compound 1 µM): 35.5%
- viability, T/C (second compound 1 µM, first compound 3.16 µM): 39.9%
- viability, T/C (second compound 1 µM, first compound 10 µM): 36%

Reference: PubChem BioAssay AID1963434 (Molecular Pharmacology Branch, DTP, NCI, 2024)
